Measurements published in patent US8722849B2, “Polypeptides” (Novo Nordisk A/S, priority 2011, dated 2014).
≈ marks a conversion by molar mass, not a printed value. Where two headings read alike, the source gives them in different places. Starred links: 1 amine or outer side, 2 acyl side, 3 side chain; linkers in the order of their positions; H or OH if unused. Positions of bridges follow the written chain, without caps; N, C: chain ends. Residues, ends and D or L forms follow the SMILES beside them. *: point of attachment. C20 diacid = O=C(O)CCCCCCCCCCCCCCCCCCC(=O)*; C18 diacid = O=C(O)CCCCCCCCCCCCCCCCC(=O)*; γGlu = O=C(O)[C@H](CCC(=O)[*:2])N[*:1]; AEEA = NCCOCCOCC(=O)O

Experiments:
[1] = Assay (III) ThT fibrillation assay for physical stability; format: physicochemical
Method in brief: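 Freshly prepared formulations, pH-adjusted, with 1 μM ThT; four or eight replicates incubated at 37 °C under 960 rpm orbital shaking. Fluorescence (ex 444/em 485 nm) read every 20 min; […]. Peptide concentration measured by RP-HPLC before and after the run.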

[2] = target: T1, human calcitonin receptor (Homo sapiens, UniProt P30988); assay: Assay (II)a functional CRE-luciferase assay, human calcitonin receptor; format: cell-based; conditions: Table 7; human calcitonin (CTa) receptor
T1 construct: expressed in transfected cells; host or cells: BHK570
T1 sequence (P30988 25-474): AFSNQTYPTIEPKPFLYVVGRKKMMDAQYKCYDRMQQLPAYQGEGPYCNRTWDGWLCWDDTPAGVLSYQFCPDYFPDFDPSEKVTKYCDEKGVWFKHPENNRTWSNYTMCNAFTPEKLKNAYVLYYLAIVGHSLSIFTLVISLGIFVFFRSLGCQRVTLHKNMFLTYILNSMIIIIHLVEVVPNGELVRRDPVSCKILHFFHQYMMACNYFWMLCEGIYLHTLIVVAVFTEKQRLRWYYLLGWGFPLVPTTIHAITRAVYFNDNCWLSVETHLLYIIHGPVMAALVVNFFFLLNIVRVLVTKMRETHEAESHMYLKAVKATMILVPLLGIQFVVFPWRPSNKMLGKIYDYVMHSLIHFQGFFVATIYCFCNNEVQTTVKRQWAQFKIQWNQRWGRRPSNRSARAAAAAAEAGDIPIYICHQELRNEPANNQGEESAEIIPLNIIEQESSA

[3] = Assay (IV) determination of solubility; format: physicochemical
Method in brief: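 Eight 100 mM buffers (glycylglycine pH 3.0–5.0, bistrispropane pH 6.0–8.0) each received an equal volume of polypeptide dissolved in water at ~500 nmol/ml. Soluble polypeptide was measured by HPLC following 18 hours at room temperature and centrifugation.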

[4] = target: T2, human amylin receptor (amylin 3(a) receptor: human calcitonin receptor + RAMP-3) (Homo sapiens, UniProt O60896+P30988); assay: Assay (II)a functional CRE-luciferase assay, human amylin receptor; format: cell-based; conditions: Table 2; BHK amylin 3(a)-receptor/CRE-luc cells
T2 construct: expressed in transfected cells; host or cells: BHK570
T2 sequence (P30988 25-474): T1 sequence (P30988 25-474)
T2 sequence (O60896 24-148 partner): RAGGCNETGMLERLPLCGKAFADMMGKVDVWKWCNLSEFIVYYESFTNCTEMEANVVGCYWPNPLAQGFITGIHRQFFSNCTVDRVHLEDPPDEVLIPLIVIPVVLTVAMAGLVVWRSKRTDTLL

[5] = bistrispropane buffer, pH 6, pH 6.0, read-out: Solubility pH 6.0
[6] = bistrispropane buffer, pH 6.5, pH 6.5, read-out: Solubility pH 6.5
[7] = bistrispropane buffer, pH 7.5, pH 7.5, read-out: Solubility pH 7.5
[8] = bistrispropane buffer, pH 8, pH 8.0, read-out: Solubility pH 8.0
[9] = glycylglycine buffer, pH 3, pH 3.0, read-out: Solubility pH 3.0
[10] = glycylglycine buffer, pH 4, pH 4.0, 18 hours at room temperature, Table 2, read-out: Solubility pH 4.0
[11] = glycylglycine buffer, pH 4, pH 4.0, read-out: Solubility pH 4.0
[12] = glycylglycine buffer, pH 5, pH 5.0, read-out: Solubility pH 5.0
[13] = bistrispropane buffer, pH 7, pH 7.0, 18 hours at room temperature, Table 3, read-out: Solubility pH 7.0
[14] = bistrispropane buffer, pH 7, pH 7.0, read-out: Solubility pH 7.0

ThT pH 4.0 lag time (h) ([1]; ThT fibrillation assay)	EC50 [2] [nM]	solubility at 18 h [3, 5] [µM]	solubility at 18 h [3, 6] [µM]	solubility at 18 h [3, 7] [µM]	solubility at 18 h [3, 8] [µM]	solubility at 18 h [3, 9] [µM]	solubility at 18 h [3, 10] [µM]	solubility at 18 h [3, 11] [µM]	solubility at 18 h [3, 12] [µM]	EC50 [4] [nM]	ThT pH 4.0 lag time ([1]; Table 8) [h]	ThT pH 4.0 lag time ([1]; Table 9) [h]	ThT pH 4.0 lag time ([1]; ThT fibrillation assay) [h]	solubility at 18 h [3, 13] [µM]	solubility at 18 h ([3]; bistrispropane buffer, pH 7, pH 7.0, Table 8, read-out: Solubility pH 7.0) [µM]	solubility at 18 h ([3]; bistrispropane buffer, pH 7, pH 7.0, Table 9, read-out: Solubility pH 7.0) [µM]	solubility at 18 h [3, 14] [µM]	solubility at 18 h ([3]; bistrispropane buffer, pH 7.5, pH 7.5, Table 9, read-out: Solubility pH 7.5) [µM]	SMILES
1.3	0.191	> 200	14 (≈ 66.9 µg/mL)	2 (≈ 9.56 µg/mL)	60 (≈ 287 µg/mL)	> 200	> 200	> 200	> 200	0.167									CC[C@H](C)[C@H](NC(=O)[C@@H]1CCCN1C(=O)CNC(=O)[C@H](Cc1ccccc1)NC(=O)[C@H](CC(N)=O)NC(=O)[C@H](CC(N)=O)NC(=O)[C@H](CO)NC(=O)[C@H](CO)NC(=O)[C@H](Cc1c[nH]cn1)NC(=O)[C@H](Cc1c[nH]cn1)NC(=O)[C@H](CC(C)C)NC(=O)[C@H](Cc1ccccc1)NC(=O)[C@H](CCC(=O)O)NC(=O)[C@H](C)NC(=O)[C@H](CC(C)C)NC(=O)[C@H](CCCNC(=N)N)NC(=O)[C@H](CCC(N)=O)NC(=O)[C@@H](NC(=O)[C@H](C)NC(=O)[C@@H]1CSSC[C@H](NC(=O)[C@H](Cc2c[nH]cn2)NC(=O)[C@H](Cc2c[nH]cn2)NC(=O)[C@H](Cc2c[nH]cn2)NC(=O)CC[C@H](NC(=O)CCCCCCCCCCCCCCCCCCC(=O)O)C(=O)O)C(=O)N[C@@H](CC(N)=O)C(=O)N[C@@H]([C@@H](C)O)C(=O)N[C@@H](C)C(=O)N[C@@H]([C@@H](C)O)C(=O)N1)[C@@H](C)O)C(=O)N[C@@H](CC(C)C)C(=O)N1CCC[C@H]1C(=O)N[C@@H](Cc1c[nH]cn1)C(=O)N[C@H](C(=O)N[C@@H](CC(N)=O)C(=O)N[C@H](C(=O)NCC(=O)N[C@@H](CO)C(=O)N[C@@H](CC(N)=O)C(=O)N[C@H](C(=O)N[C@@H](Cc1ccc(O)cc1)C(N)=O)[C@@H](C)O)C(C)C)[C@@H](C)O [Example 36, N-alpha-[(S)-4-Carboxy-4-(19-carboxynonadecanoylamino)butyryl]-His-His-[His1,Glu14,His17,His29]-pramlintide] ({C20 diacid-γGlu}-HHHCNTATCATQRLAEFLHHSSNNFGPILPHTNVGSNTY-NH2; disulfide 4-9 (inferred))
>45	0.0595	> 200	> 200	> 200	> 200	> 200	> 200	> 200	> 200	0.091	>45	>45	>45	> 200	> 200	> 200	> 200	> 200	CC[C@H](C)[C@H](NC(=O)[C@@H]1CCCN1C(=O)CNC(=O)[C@H](Cc1ccccc1)NC(=O)[C@H](CC(N)=O)NC(=O)[C@@H](NC(=O)[C@H](CO)NC(=O)[C@H](CO)NC(=O)[C@H](Cc1c[nH]cn1)NC(=O)[C@H](Cc1c[nH]cn1)NC(=O)[C@H](CC(C)C)NC(=O)[C@H](Cc1ccccc1)NC(=O)[C@H](CCC(=O)O)NC(=O)[C@H](C)NC(=O)[C@H](CC(C)C)NC(=O)[C@H](CCCNC(=N)N)NC(=O)[C@H](CCC(N)=O)NC(=O)[C@@H](NC(=O)[C@H](C)NC(=O)[C@@H]1CSSC[C@H](NC(=O)[C@H](CCCCN)NC(=O)CC[C@H](NC(=O)CCCCCCCCCCCCCCCCCCC(=O)O)C(=O)O)C(=O)N[C@@H](CC(N)=O)C(=O)N[C@@H]([C@@H](C)O)C(=O)N[C@@H](C)C(=O)N[C@@H]([C@@H](C)O)C(=O)N1)[C@@H](C)O)[C@@H](C)O)C(=O)N[C@@H](CC(C)C)C(=O)N1CCC[C@H]1C(=O)N1CCC[C@H]1C(=O)N[C@H](C(=O)N[C@@H](CC(N)=O)C(=O)N[C@H](C(=O)NCC(=O)N[C@@H](CO)C(=O)N[C@@H](CC(N)=O)C(=O)N[C@H](C(=O)N1CCC[C@H]1C(N)=O)[C@@H](C)O)C(C)C)[C@@H](C)O [Example 146, N-alpha-[(S)-4-Carboxy-4-(19-carboxynonadecanoylamino)butyryl]-[Glu14,His17,Thr21,Pro37]-pramlintide] ({C20 diacid-γGlu}-KCNTATCATQRLAEFLHHSSTNFGPILPPTNVGSNTP-NH2; disulfide 2-7 (inferred))
10	0.484	> 200	17 (≈ 82 µg/mL)		16 (≈ 77.2 µg/mL)	> 200	> 200	> 200	> 200	1.03									CC[C@H](C)[C@H](NC(=O)[C@@H]1CCCN1C(=O)CNC(=O)[C@H](Cc1ccccc1)NC(=O)[C@H](CC(N)=O)NC(=O)[C@H](CC(N)=O)NC(=O)[C@H](CO)NC(=O)[C@H](CO)NC(=O)[C@H](Cc1c[nH]cn1)NC(=O)[C@H](Cc1c[nH]cn1)NC(=O)[C@H](CC(C)C)NC(=O)[C@H](Cc1ccccc1)NC(=O)[C@H](CCC(=O)O)NC(=O)[C@H](C)NC(=O)[C@H](CC(C)C)NC(=O)[C@H](CCCNC(=N)N)NC(=O)[C@H](CCC(N)=O)NC(=O)[C@@H](NC(=O)[C@H](C)NC(=O)[C@@H]1CSSC[C@H](NC(=O)[C@H](Cc2c[nH]cn2)NC(=O)[C@H](Cc2c[nH]cn2)NC(=O)[C@H](Cc2c[nH]cn2)NC(=O)CC[C@H](NC(=O)CCCCCCCCCCCCCCCCCCC(=O)O)C(=O)O)C(=O)N[C@@H](Cc2c[nH]cn2)C(=O)N[C@@H]([C@@H](C)O)C(=O)N[C@@H](C)C(=O)N[C@@H]([C@@H](C)O)C(=O)N1)[C@@H](C)O)C(=O)N[C@@H](CC(C)C)C(=O)N1CCC[C@H]1C(=O)N[C@@H](Cc1c[nH]cn1)C(=O)N[C@H](C(=O)N[C@@H](CC(N)=O)C(=O)N[C@H](C(=O)NCC(=O)N[C@@H](CO)C(=O)N[C@@H](Cc1c[nH]cn1)C(=O)N[C@H](C(=O)N[C@@H](Cc1ccc(O)cc1)C(N)=O)[C@@H](C)O)C(C)C)[C@@H](C)O [Example 33, N-alpha-[(S)-4-Carboxy-4-(19-carboxynonadecanoylamino)butyryl]-His-His-[His1,His3,Glu14,His17,His29,His35]-pramlintide] ({C20 diacid-γGlu}-HHHCHTATCATQRLAEFLHHSSNNFGPILPHTNVGSHTY-NH2; disulfide 4-9 (inferred); C-terminus assumed)
14	0.288	> 200	> 200	> 200	> 200	> 200	> 200	> 200	> 200	0.108				> 200			> 200		CC[C@H](C)[C@H](NC(=O)[C@@H]1CCCN1C(=O)CNC(=O)[C@H](Cc1ccccc1)NC(=O)[C@H](CC(N)=O)NC(=O)[C@H](CC(N)=O)NC(=O)[C@H](CO)NC(=O)[C@H](CO)NC(=O)[C@H](Cc1c[nH]cn1)NC(=O)[C@H](Cc1c[nH]cn1)NC(=O)[C@H](CC(C)C)NC(=O)[C@H](Cc1ccccc1)NC(=O)[C@H](CCC(=O)O)NC(=O)[C@H](C)NC(=O)[C@H](CC(C)C)NC(=O)[C@H](CCCNC(=N)N)NC(=O)[C@H](CCC(N)=O)NC(=O)[C@@H](NC(=O)[C@H](C)NC(=O)[C@@H]1CSSC[C@H](NC(=O)[C@H](CCC(=O)O)NC(=O)COCCOCCNC(=O)COCCOCCNC(=O)CC[C@H](NC(=O)CCCCCCCCCCCCCCCCC(=O)O)C(=O)O)C(=O)N[C@@H](CC(N)=O)C(=O)N[C@@H]([C@@H](C)O)C(=O)N[C@@H](C)C(=O)N[C@@H]([C@@H](C)O)C(=O)N1)[C@@H](C)O)C(=O)N[C@@H](CC(C)C)C(=O)N1CCC[C@H]1C(=O)N1CCC[C@H]1C(=O)N[C@H](C(=O)N[C@@H](CC(N)=O)C(=O)N[C@H](C(=O)NCC(=O)N[C@@H](CO)C(=O)N[C@@H](CC(N)=O)C(=O)N[C@H](C(=O)N1CCC[C@H]1C(N)=O)[C@@H](C)O)C(C)C)[C@@H](C)O [Example 82, N-alpha-[2-(2-{2-[2-(2-{2-[(S)-4-Carboxy-4-(17-carboxyheptadecanoylamino)butyrylamino]ethoxy}ethoxy)acetylamino]ethoxy}ethoxy)acetyl]-[Glu1,Glu14,His17,Pro37]-pramlintide] ({C18 diacid-γGlu-AEEA-AEEA}-ECNTATCATQRLAEFLHHSSNNFGPILPPTNVGSNTP-NH2; disulfide 2-7 (inferred); C-terminus assumed)
